# Experimental data as given in patent US5208243A, “5-isoquinolinesulfonamides” (Adir et Compagnie, priority 1991, dated 1993).
# Structures can show the parent of a compound that is named as a salt. Where two headings read alike, the source gives them in different places.
# Columns and labels:
# [1] = tested on: rabbit aorta; assay: Contraction of rabbit aorta induced by noradrenaline in a normal physiological medium; design: species or system New Zealand rabbit; conditions: Oryctolagus cuniculus, noradrenaline 10^-6 M, read-out: IC50, noradrenaline stimulus
# Protocol: (§1) Studies are carried out on rings, 3 mm in length, […] The vascular rings are immersed in a normal physiological solution or in a physiological solution lacking calcium (+0.2 mM of the chelating agent EGTA), which is thermostatically regulated at 37° C. and aerated with a 95% O2 +5% CO2 mixture. The rings are linked to a STATHAM tension sensor (UC2-GOULD). The optimal tension for each vessel is applied and a stabilization period of 90 min is observed for the preparations. a) Antivasoconstrictive activity of the compounds of the invention in a physiological medium.
# [2] = tested on: rabbit aorta; assay: Contraction of rabbit aorta induced by phorbol ester in a medium without calcium; design: species or system New Zealand rabbit; conditions: Oryctolagus cuniculus, 10^-5 M, medium lacking calcium
# Protocol: as §1, with “b)” for “a)”, “medium without calcium.” for “physiological medium.”
# [3] = tested on: rabbit aorta; assay: Vascular contraction of rabbit aorta induced by PDGF; design: species or system New Zealand rabbit; conditions: Oryctolagus cuniculus, 10^-5 M, preincubated 15 minutes
# Protocol: as §1
# [4] = tested on: rabbit aorta; assay: Contraction of rabbit aorta induced by phorbol ester in a normal physiological medium; design: species or system New Zealand rabbit; conditions: Oryctolagus cuniculus, TPA 10^-5 M, read-out: IC50, phorbol ester stimulus
# Protocol: as §1
# [5] = tested on: guinea pig left auricle; assay: Ouabain intoxication of guinea pig left auricle; conditions: compound 10^-6 M
# [6] = tested on: smooth muscle cells of the aorta; assay: Proliferation rate after endothelial denudation of the aorta (3H-thymidine incorporation); type: in vivo, WISTAR rat; conditions: 10 mg/kg orally, daily
# Protocol: D/ Effect of the compounds of the invention on the proliferation rate after endothelial denudation. […] After pretreatment for 6 days (J6), denudation of the aortic endothelium of the animals is performed according to the following method: After anesthetizing the animal with methohexital (Brietal, 60 mg/kg intraperitoneally), an embolectomy probe (Fogarty 2F) is introduced into the aorta through the left carotid. Aortic deendothelialization is achieved by three successive passages of the probe. Three days after the endothelial denudation (J9), the rats are sacrificed and the aorta is removed, incubated in a physiological solution for 1 hour at 37° C., and then transferred into a ^3 H-thymidine-enriched Krebs- Henseleit solution (specific activity: […]) for 1 hour at 37° C. This is followed by a one-hour post-incubation in a Krebs-Henseleit solution lacking ^3 H-thymidine. After washing in a Tris-EDTA buffer, the proliferation rate is calculated from the incorporation of 3H-thymidine. [drawing 17]
# [7] = tested on: isolated heart; assay: Isolated heart subjected to an ischemia-reperfusion sequence; design: species or system WISTAR rat; conditions: Rattus norvegicus, concentration of 810^-7 M (so in the source)
# Protocol: b) Protective effect of the compounds of the invention on an isolated heart subjected to an ischemia-reperfusion sequence.
# The heart is removed from WISTAR rats (325-375 g). The heart is rapidly perfused according to the technique of LANGENDORFF at a constant pressure of 101.310^2 Pa and electrically stimulated at 5 Hz.
# The heart is subjected to a 30 min ischemia (produced by complete stoppage of the perfusion) followed by a 60 min reperfusion. The test compounds are incubated for 15 min before the ischemia.
# Isovolumetric contractions are recorded by means of a polyethylene ballonet linked to a pressure sensor (P23-GOULD) introduced into the left ventricle and inflated so as to obtain a diastolic pressure of between 6.710^2 and 13.310^2 Pa.
# [8] = tested on: rabbit aortas; assay: Contraction of rabbit aortas induced by noradrenaline in a medium without calcium; design: species or system New Zealand rabbit; conditions: Oryctolagus cuniculus, 0.5 h, rabbit aorta, incubated 30 minutes; for inhibition at 1 µM: compound 10^-6 M; for inhibition at 0.1 µM: compound 10^-7 M
# Protocol: as §1, with “b)” for “a)”, “medium without calcium.” for “physiological medium.”
# [9] = tested on: Rabbit iliac artery; assay: Contraction of rabbit iliac artery induced by caffeine in a medium without calcium; design: species or system New Zealand rabbit; conditions: Oryctolagus cuniculus, 10^-5 M, medium lacking calcium
# Protocol: as §1, with “b)” for “a)”, “medium without calcium.” for “physiological medium.”
# [10] = tested on: rabbit aorta; assay: Contraction of rabbit aorta induced by endothelin in a normal physiological medium; design: species or system New Zealand rabbit; conditions: Oryctolagus cuniculus, read-out: IC50, endothelin stimulus
# Protocol: as §1
# [11] = tested on: guinea pig left auricle; assay: Veratridine intoxication of guinea pig left auricle; conditions: compound 10^-5 M
# Protocol: a) Effect of the compounds of the invention on the intoxication of guinea pig left auricle.
# The left auricles are removed from guinea pigs (350-450 g) anesthetized with sodium pentobarbital (30 mg/kg). The auricles are attached to a STATHAM tension sensor (UC2-GOULD) and the initial tension applied is 0.5 grams.
# The auricles are electrically stimulated at 1 Hz by means of platinum electrodes. The intoxications are produced either by the addition of ouabain (10^-6 M) or by the addition of veratridine (10^-5 M). The test compounds are added 15 minutes before adding the toxic agent.
# [12] = tested on: rabbit aorta; assay: Contraction of rabbit aorta induced by endothelin in a medium without calcium; design: species or system New Zealand rabbit; conditions: Oryctolagus cuniculus, 10^-5 M, medium lacking calcium
# Protocol: as §1, with “b)” for “a)”, “medium without calcium.” for “physiological medium.”
# [13] = tested on: rabbit aorta; assay: Contraction of rabbit aorta induced by angiotensin II in a medium without calcium; design: species or system New Zealand rabbit; conditions: Oryctolagus cuniculus, 10^-5 M, medium lacking calcium
# Protocol: as §1, with “b)” for “a)”, “medium without calcium.” for “physiological medium.”
# [14] = tested on: pig coronary artery; assay: Vascular contraction of pig coronary artery induced by acetylcholine; conditions: Sus scrofa, 10^-5 M, preincubated 15 minutes
# Protocol: Studies are carried out on rings, 3 mm in length, - or of coronary arteries from pigs anesthetized with nesdonal (8 mg/kg intravenously). The vascular rings are immersed in a normal physiological solution or in a physiological solution lacking calcium (+0.2 mM of the chelating agent EGTA), which is thermostatically regulated at 37° C. and aerated with a 95% O2 +5% CO2 mixture. The rings are linked to a STATHAM tension sensor (UC2-GOULD). The optimal tension for each vessel is applied and a stabilization period of 90 min is observed for the preparations. a) Antivasoconstrictive activity of the compounds of the invention in a physiological medium.
# [15] = tested on: rabbit mesenteric artery; assay: Contraction of rabbit mesenteric artery induced by electrical stimulation; design: species or system New Zealand rabbit; conditions: Oryctolagus cuniculus, normal physiological medium
# Protocol: as §1
# [16] = tested on: rat aortas; assay: Contraction of rat aortas induced by potassium depolarization (hyperpotassium medium); design: species or system WISTAR rat; conditions: read-out: IC50 (concentration inhibiting by 50% the contraction of rat aortas induced by potassium depolarization)
# Text: The rings are linked to a STATHAM tension sensor (UC2-GOULD).
compound,measurement,setting,value
"CN(C1CCN(CCCCOc2ccc(F)cc2)CC1)S(=O)(=O)c1cccc2cnccc12 [Example 1, N-Methyl-N-{1-[4-(pfluorophenoxy)butyl]-4-piperidyl}-5-isoquinolinesulfonamide fumarate]",IC50,[1],1400 nM
same,inhibition at 10 µM,[2],66%
same,inhibition at 10 µM,[3],20%
same,IC50,[4],300 µM
same,% contraction,[5]; 10 min,192 ± 29%
same,Contracture (%),[5]; 15 min,0%
same,% contraction,[5]; 30 min,187.5 ± 30%
same,Contracture (%),[5]; 30 min,1.9 ± 1.9%
same,% contraction,[5]; 60 min,148.3 ± 33%
same,Contracture (%),[5]; 60 min,18 ± 7%
same,reduction of the proliferation of smooth muscle cells,[6],40%
same,inhibition at 0.8 µM,"[7]; 0.5 h, read-out: reduction of the contracture developed after 30 minutes of ischemia, relative to control",47%
same,activation at 0.8 µM,"[7]; 1 h, end of 60 minutes of reperfusion, read-out: improvement of the functional recuperation of the hearts relative to control",55%
same,inhibition at 1 µM,[8],61%
same,inhibition at 10 µM,[9],30%
same,IC50,[10],8.1 µM
same,% contraction,[11]; 5 min,158 ± 11%
same,% contraction,[11]; 15 min,60.5 ± 13%
same,Contracture (%),[11]; 15 min,23.5 ± 6.2%
same,Contracture (%),[11]; 30 min,52.2 ± 4.7%
same,% contraction,[11]; 60 min,20.5 ± 4.6%
same,Contracture (%),[11]; 60 min,60.7 ± 4.4%
same,inhibition at 10 µM,[12],42%
same,inhibition at 10 µM,[13],40%
same,inhibition at 10 µM,[14],61%
same,IC50,[15],400 nM
same,IC50,[16],850 nM
"CN(C1CCN(CCCCOc2ccc([N+](=O)[O-])cc2)CC1)S(=O)(=O)c1cccc2cnccc12 [Example 2, N-Methyl-N-{1-[4-(p-nitrophenoxy)butyl]-4-piperidyl}-5-isoquinolinesulfonamide fumarate]",inhibition at 1 µM,[8],12%
same,IC50,"[16]; 80 mM KCl, 37 mM NaCl",1300 nM
"CN(C1CCN(CCCCOc2ccccc2)CC1)S(=O)(=O)c1cccc2cnccc12 [Example 3, N-Methyl-N-{1-[4-(phenoxy)butyl]4-piperidyl}-5 isoquinolinesulfonamide fumarate]",inhibition at 1 µM,[8],47%
same,IC50,"[16]; 80 mM KCl, 37 mM NaCl",1700 nM
"CN(C1CCN(CCCCOc2ccc(Cl)cc2)CC1)S(=O)(=O)c1cccc2cnccc12 [Example 6, N-Methyl-N-{1-[4-(p-chlorophenoxy)butyl4-piperidyl}-5-isoquinolinesulfonamide hydrochloride]",inhibition at 1 µM,[8],18%
same,IC50,"[16]; 80 mM KCl, 37 mM NaCl",1100 nM
"COc1ccc(OCCCCN2CCC(N(C)S(=O)(=O)c3cccc4cnccc34)CC2)cc1 [Example 7, N-Methyl-N-{1-[4-(p-methoxyphenoxy)butyl]-4-piperidyl}-5-isoquinolinesulfonamide hydrochloride]",inhibition at 1 µM,[8],13%
same,IC50,"[16]; 80 mM KCl, 37 mM NaCl",1900 nM
"CN(C1CCN(CCCCOc2ccc(C#N)cc2)CC1)S(=O)(=O)c1cccc2cnccc12 [Example 8, N-Methyl N-{1-[4-(p-cyanophenoxy)butyl]4-piperidyl}-5-isoquinolinesulfonamide dihydrochloride]",IC50,"[16]; 80 mM KCl, 37 mM NaCl",950 nM
"CN(C1CCN(CCCCSc2ccc(F)cc2)CC1)S(=O)(=O)c1cccc2cnccc12 [Example 12, N-Methyl-N-{1-[4-(p-fluorophenylthio)butyl]-4-piperidyl}-5-isoquinolinesulfonamide dihydrochloride]",inhibition at 1 µM,[8],19%
same,IC50,"[16]; 80 mM KCl, 37 mM NaCl",1300 nM
"O=S(=O)(NC1CCN(CCCCOc2ccc(F)cc2)CC1)c1cccc2cnccc12 [Example 13, N-{1-[4-(p-fluorophenoxy)butyl]4-piperidyl)}-5-isoquinolinesulfonamide dihydrochloride]",inhibition at 1 µM,[8],42%
same,IC50,"[16]; 80 mM KCl, 37 mM NaCl",2900 nM
"O=S(=O)(NCC1CCN(CCCOc2ccc(F)cc2)CC1)c1cccc2cnccc12 [Example 15, N-{[1-[3-(p-Fluorophenoxy)propyl]-4-piperidyl]methyl}-5-isoquinolinesulfonamide]",inhibition at 1 µM,[8],59%
same,IC50,"[16]; 80 mM KCl, 37 mM NaCl",3500 nM
"CN(CC1CCN(CCCOc2ccccc2)CC1)S(=O)(=O)c1cccc2cnccc12 [Example 19, N-Methyl-N-{[1-[3-(phenoxy)propyl]-4-piperidyl]methyl}-5-isoquinolinesufonamide]",inhibition at 1 µM,[8],67%
same,inhibition at 0.1 µM,[8],31%
same,IC50,"[16]; 80 mM KCl, 37 mM NaCl",2800 nM
"CN(CC1CCN(CCCCOc2ccc(F)cc2)C1)S(=O)(=O)c1cccc2cnccc12 (stereo not shown) [Example 21, N-Methyl-N-{[1-[4-(p-fluorophenoxy)butyl]-3-pyrrolidinyl]methyl}-5-isoquinolinesulfonamide dihydrochloride]",inhibition at 1 µM,[8],73%
same,inhibition at 0.1 µM,[8],17%
same,IC50,"[16]; 80 mM KCl, 37 mM NaCl",1900 nM
"CN(CC1CCN(CCCOc2ccc(F)cc2)C1)S(=O)(=O)c1cccc2cnccc12 (stereo not shown) [Example 22, N-Methyl-N-{[1-[3-(p-fluorophenoxy)propyl]-3-pyrrolidinyl]methyl}-5-isoquinolinesulfonamide dihydrochloride]",inhibition at 1 µM,[8],82%
same,inhibition at 0.1 µM,[8],43%
same,IC50,"[16]; 80 mM KCl, 37 mM NaCl",3600 nM
"O=S(=O)(NCC1CCN(CCCNc2ccc(F)cc2)CC1)c1cccc2cnccc12 [Example 24, N-{[1-[3-(p-fluorophenylamino)propyl]-4-piperidyl]methyl}-5-isoquinolinesulfonamide fumarate]",inhibition at 1 µM,[8],67%
same,inhibition at 0.1 µM,[8],38%
same,IC50,"[16]; 80 mM KCl, 37 mM NaCl",4500 nM
"CN(CC1CCN(CCCNc2ccc(F)cc2)CC1)S(=O)(=O)c1cccc2cnccc12 [Example 25, N-Methyl-N-{1-[3-(p-fluorophenylamino)propyl]-4-piperidyl]methyl}-5-isoquinolinesulfonamide fumarate]",inhibition at 1 µM,[8],77%
same,inhibition at 0.1 µM,[8],22%
"CCN(C1CCN(CCCCOc2ccc(F)cc2)CC1)S(=O)(=O)c1cccc2cnccc12 [Example 26, N-Ethyl-N-{1-[4-(p-fluorophenoxy)butyl]-4-piperidyl}-5-isoquinolinesulfonamide dihydrochloride]",inhibition at 1 µM,[8],26%
same,IC50,"[16]; 80 mM KCl, 37 mM NaCl",5300 nM
